Data as given in US20230332232A1, “COMPOSITIONS AND METHODS FOR DIAGNOSING AND TREATING A DYSTONIA” (Duke University, priority 2020, published 2023).

Tested on: DYT1 knockin (Tor1a^delGAG/+) murine embryonic fibroblasts (MEFs)
Assay: Untargeted LC/MS/MS proteomics of EVs from DYT1 MEFs exposed 24 hours to drug, compared with untreated DYT1 (Het) MEFs
Type: cell-based, mouse
Method: Methods for isolation and purification of exosomes and extracellular vesicles (EV) were extensively reviewed. Experiments were performed to arrive at a robust and reproducible protocol. The protocol used herein is that set forth in Théry et al, 2006, which is incorporated by reference for it teaching of this protocol. This protocol involves depleting serum-derived EVs from cell culture media by overnight ultracentrifugation and exchanging media for 1% FBS EV-depleted media. Media is then collected from cells following a 24-hour conditioning period and EVs are isolated by 18-hour ultracentrifugation at 100,000 g (FIG. 1A).
EVs were isolated from media of cultured murine embryonic fibroblasts (MEFs) prepared in-house according to protocols described by Xu 2005 from DYT1 knockin mice (Tor1a^delGAG/+) (Goodchild R E, et al. (2005) Neuron. 48:923-932) and littermate wild-type (WT) controls. The cultured MEFs from the DYT1 mice were exposed for 24 hours to Ritonavir (RTV) while the MEFs from WT mice were exposed to vehicle, ISRIB, or Salubrinal (SAL). The EVs isolated from these WT cells and DYT1 were characterized by untargeted proteomics and RNA-seq to identify differentially expressed proteins and RNAs as candidate biomarkers. Experimenter and Proteomics core staff were blinded to genotype of cell cultures throughout preparation and analysis phases.
Samples were first normalized to 20 μg and spiked with undigested casein at a total of 40 fmol/μg, 80 fmol/μg, or 160 fmol/μg, then reduced with 10 mM dithiolthreitol for 30 minute at 80° C. and alkylated with 20 mM iodoacetamide for 30 minutes at room temperature. Next, the samples were supplemented with a final concentration of 1.2% phosphoric acid and 741 μL of S-Trap (Protifi) binding buffer (90% MeOH/100 mM […]). Proteins were trapped on the S-Trap, digested using 20 ng/μL sequencing grade trypsin (Promega) for 1 hour at 47° C., and eluted using 50 mM TEAB, followed by 0.2% FA, and lastly using 50% CAN/0.2% FA. All samples were then lyophilized to dryness and resuspended in 40 μL 1% TFA/2% acetonitrile containing 12.5 fmol/μL yeast alcohol dehydrogenase (ADH_YEAST). A QC Pool was created from 3 uL of each sample. All QC Pools were run periodically throughout the acquisition period.
Quantitative LC/MS/MS was performed on 2 μL of each sample, using a nanoAcquity UPLC system (Waters Corp) coupled to a Thermo Orbitrap Fusion Lumos high resolution accurate mass tandem mass spectrometer (Thermo) via a nanoelectrospray ionization source. Briefly, the sample was first trapped on a Symmetry C18 20 mm×180 μm trapping column (5 μL/min at 99.9/0.1 v/v water/acetonitrile), after which the analytical separation was performed using a 1.8 μm Acquity HSS T3 C18 75 μm×250 mm column (Waters Corp.) with a 90 minute linear gradient of 5% to 30% acetonitrile with 0.1% formic acid at a flow rate of 400 nanoliters/minute (nL/min) with a column temperature of 55° C. Data collection on the Fusion Lumos mass spectrometer was performed in a data-dependent acquisition (DDA) mode of acquisition with a r=120,000 (@ m/z 200) full MS scan from m/z 375-1500 with a target AGC value of 2e5 ions. MS/MS scans were acquired at Rapid scan rate (Ion Trap) with an AGC target of 5e3 ions and a max injection time of 100 ms. The total cycle time for MS and MS/MS scans was 2 seconds. A 20 second dynamic exclusion was employed to increase depth of coverage. The total analysis cycle time for each sample injection was approximately 2 hours.

Measured: SAL Direction Opposite ISRIB?

O=C(/C=C/c1ccccc1)NC(NC(=S)Nc1cccc2cccnc12)C(Cl)(Cl)Cl (stereo not shown) [SAL, Salubrinal]
yes: DYT1 (Het) MEF EVs, protein: DNA replication licensing factor MCM6 | DYT1 (Het) MEF EVs, protein: DNA-directed RNA polymerases I and III subunit RPAC1 | DYT1 (Het) MEF EVs, protein: Protein arginine N-methyltransferase 3 | DYT1 (Het) MEF EVs, protein: Scavenger receptor class B member 1 | DYT1 (Het) MEF EVs, protein: Serine threonine-protein phosphatase 2A 55 kDa regulatory subunit B alpha isoform | DYT1 (Het) MEF EVs, protein: Small nuclear ribonucleoprotein-associated protein B | EV protein: 26S proteasome non-ATPase regulatory subunit 8 | EV protein: 60S [?] subunit biogenesis protein [?] homolog | EV protein: 60S ribosomal protein [?] | EV protein: 116 kDa [?] small nuclear ribonucleoprotein component | EV protein: AP-3 complex subunit [?] | EV protein: ATP-dependent RNA helicase [?] | EV protein: Acyl-protein thioesterase 2 | EV protein: Anaphase-promoting complex subunit 2 | EV protein: Anaphase-promoting complex subunit 5 | EV protein: Apolipoprotein M | EV protein: Calnexin | EV protein: Cell [?] cycle protein [?] homolog | EV protein: Coiled-coil domain-containing protein 22 | EV protein: Cullin-2 | EV protein: Cullin-5 | EV protein: Cullin-7 | EV protein: DNA [?] (r264) | EV protein: DNA ligase 1 | EV protein: DNA replication licensing factor [?] | EV protein: DNA-directed RNA polymerase II subunit RPB1 | EV protein: DNA-directed RNA polymerase II subunit RPB2 | EV protein: DNA-directed RNA polymerase II subunit RPB3 | EV protein: DNA-directed RNA polymerases I, II, and III subunit RPABC3 | EV protein: DNA-directed RNA polymerases I, II, and III subunit [?] | EV protein: Double-strand-break repair protein rad21 homolog | EV protein: Elongin-B | EV protein: Exosome complex exonuclease RRP44 | EV protein: Extended synaptotagmin-1 | EV protein: Gamma-tubulin complex component 2 | EV protein: General vesicular transport factor p115 | EV protein: Glycosylated lysosomal membrane protein | EV protein: Glycylpeptide N-tetradecanoyltransferase 1 | EV protein: Golgi reassembly-stacking protein 2 | EV protein: Histone-arginine methyltransterase CARM1 | EV protein: Importin-7 | EV protein: Leucyl-cystinyl aminopeptidase | EV protein: Mediator [?] RNA polymerase II transcription subunit 23 | EV protein: Metastasis-associated protein [?] (r222) | EV protein: Metastasis-associated protein [?] (r261) | EV protein: Microtubule-associated protein [?] | EV protein: Nuclear [?] complex protein [?] | EV protein: Nuclear cap-binding protein subunit 1 | EV protein: Nuclear receptor-binding protein | EV protein: Phosphoribosyl pyrophosphate synthase-associated protein 1 | EV protein: Pigment epithelium-derived factor | EV protein: Protein O-GlcNAcase | EV protein: Protein [?] 14 homolog | EV protein: Protein [?] (r160) | EV protein: Ran-binding protein 10 | EV protein: Ribosome biogenesis protein BOP1 | EV protein: Ribosome production factor 2 homolog | EV protein: Serine threonine-protein phosphatase 6 catalytic subinit | EV protein: Sorting nexin-1 | EV protein: Trascriptional activator protein [?] -alpha | EV protein: WD repeat-containing protein [?] | EV protein: [?] -1 (r154) | EV protein: [?] -1 (r232) | EV protein: [?] -conjucating enxyme [?] | EV protein: [?] kinase | EV protein: [?] myosin- [?] | EV protein: [?] repeat-containing protein 5A | EV protein: [?] small nuclear ribonucleoprotein 40 kDa protein | EV protein: p21-activated protein kinase-interacting protein 1 | EV protein: transportin-3
